Assay [1] deals with behaviors of compound-treated mice. The assay is described as follows: SmartCube behavioral signature and similarity analysis. The conditions noted are these: 25 mg/kg i.p.; for SmartCube behavioral signature: compared with reference drug classes; for discrimination rate vs Clozapine / discrimination rate vs Olanzapine / discrimination rate vs Risperidone: rate of 0.70 or lower = similar. The arrangement: key to discrimination rate vs Clozapine / discrimination rate vs Olanzapine / discrimination rate vs Risperidone: discrimination rate as fraction; 0.5 = zero distinguishability. The format is in vivo. From the text:
In addition to the reversal of L-687,414 induced hyperlocomotion experiment as described above, some compounds of the present invention have been tested in SmartCube®, an automated system in which the behaviors of compound-treated mice in response to multiple challenges are captured by digital video and analyzed with computer algorithms (Roberds et al., Frontiers in Neuroscience, 2011, Vol. 5, Art. 103, 1-4). In this way, the neuro-pharmacological effects of a test compound can be predicted by similarity to major classes of compounds, such as antipsychotics, anxiolytics and antidepressants.
As mentioned above, some compounds have been tested in SmartCube®, an analytical system developed by PsychoGenics Inc.
SmartCube® was used to compare the behavioral signature of a test compound to a database of behavioral signatures obtained from a large set of clinically approved reference drugs, grouped per indications. In this way, the neuro-pharmacological effects of a test compound can be predicted by similarity to major classes of compounds, such as antipsychotics, anxiolytics and antidepressants. This approach is ideally suited to screen collections of existing drugs or drug candidates with previously unknown neuropharmacology, which could expedite the development of new and unexpected treatments for psychiatric disorders.
Some compounds of the present invention were injected i.p. at different doses 15 minutes before the test. At least 8 mice were used in each treatment group. Digital videos of the subjects were processed with computer vision algorithms to extract over 2000 dependent measures including frequency and duration of many different behavioral states. The results of the classifications are presented as bar charts for each compound and dose (mg/kg), the Y-axis indicates the relative probability that the test compound will show efficacy in the specific CNS indication.
Compounds of the present invention show similar signatures to those of atypical antipsychotics. An independent analysis was performed on the unclassified data to determine the similarity of the example compounds to active doses of known atypical antipsychotics. For this analysis, we use discrimination rate as the measure of separability between the two drugs, i.e. one drug's “distinguishability” from another. A rate equal to 50% (or 0.5) corresponds to zero distinguishability. […] In most cases, the example compounds show a similarity to risperidone, clozapine and olanzapine with a discrimination rate of ≦0.70.

Assay [2] has as its system L-687,414-induced hyperlocomotion. Nature of the assay: L-687,414-induced hyperlocomotion (Digiscan locomotor activity). The format is in vivo, mouse. The note with it: mice; for inhibition at 30 mg/kg: dose ip 30 mg/kg. The text has this:
The authors described that hyperlocomotion induced by L-687,414 was inhibited by a series of known antipsychotic drugs. […] These findings predict antipsychotic activity for the present compounds, making them useful for the treatment of positive (psychosis) and negative symptoms of schizophrenia, substance abuse, alcohol and drug addiction, obsessive-compulsive disorders, cognitive impairment, bipolar disorders, mood disorders, major depression, resistant depression, anxiety disorders, Alzheimer's disease, autism, Parkinson's disease, chronic pain, borderline personality disorder, sleep disturbances, chronic fatigue syndrome, stiffness, antiinflammatory effects in arthritis and balance problems.
The described compounds of formula I reduce L-687,414-induced hyperlocomotion. This was assessed by using a computerized Digiscan 16 Animal Activity Monitoring System (Omnitech Electronics, Columbus, Ohio) to quantify locomotor activity. Animals were kept under a 12 h light/dark cycle and experiments were performed during the light period. Each activity monitoring chamber consisted of a Plexiglas box (41×41×28 cm; W×L×H) with sawdust bedding on the floor surrounded by invisible horizontal and vertical infrared sensor beams. The test boxes were divided by a Plexiglas cross providing each mouse with 20×20 cm of moving space. Cages were connected to a Digiscan Analyzer linked to a computer that constantly collected the beam status information. Records of photocell beam interruptions for individual animals were taken every 5 min over the duration of the experimental session and the sum of the first 6 periods was used as the final parameter. Compounds were administered either p.o. 15 min before a s.c. injection of 50 mg/kg of L-687,414, or i.p. at the same time as a s.c. injection of 50 mg/kg of L-687,414. Mice were then transferred from their home cage to the recording chambers for a 15-min habituation phase allowing free exploration of the new environment. Horizontal activity was then recorded for a 30-min time period. The % inhibition of L-687,414-induced hyperlocomotion was calculated according to the equation: ((Veh+L-687,414 horizontal activity−drug+L-687,414 horizontal activity)Veh+L-687,414 horizontal activity)×100
ID50 values, defined as doses of each compound producing 50% inhibition of L-687,414-induced hyperlocomotion, were calculated by linear regression analysis of a dose-response data using an Excel-based computer-fitting program.
As data was not presupposed to be normally distributed, groups treated with test compounds were statistically compared with the control (vehicle-treated) group using one-tailed Mann Whitney U tests. In statistics, the Mann-Whitney Utest (also called the Mann-Whitney-Wilcoxon (MWW) or Wilcoxon rank-sum test) is a non-parametric statistical hypothesis test for assessing whether one of two samples of independent observations tends to have larger values than the other. It is one of the most well-known non-parametric significance tests. […] P values given in table 1 are one-tailed since only decreases in locomotion were expected and tested for (Mann, H. B., Whitney, D. R. (1947), “On a Test of Whether one of Two Random Variables is Stochastically Larger than the Other”, Annals of Mathematical Statistics, 18 (1), 50-60).

Where [3] appears, read: Mus musculus, at the same time as s.c. 50 mg/kg L-687,414.

Consider `CC1(C)C(=O)Nc2cc(-n3ccnc3)ccc21` [Example 58, 6-Imidazol-1-yl-3,3-dimethyl-1,3-dihydro-indol-2-one], for which, in assay [1], the SmartCube behavioral signature entry is recorded as “similarity to atypical antipsychotics”, the “discrimination rate vs Clozapine” value was determined as 0.63, the “discrimination rate vs Olanzapine” value was 0.69 and the “discrimination rate vs Risperidone” value is 0.66.
For orientation: inhibition means the drop in the measured response relative to a control, in per cent. On to `CN1C(=O)C(C)(C)c2ccc(-c3cccnn3)cc21` [Example 13, 1,3,3-Trimethyl-6-(pyridazin-3-yl)indolin-2-one], for which 30 mg/kg produced 76.9% inhibition in assay [2] (setting [3]). In addition, in assay [1], the SmartCube behavioral signature result is “similarity to atypical antipsychotics”, the “discrimination rate vs Clozapine” value was 0.69, the “discrimination rate vs Olanzapine” value was 0.70 and the “discrimination rate vs Risperidone” value was 0.72.
As to `Cc1ncc(-c2ccc3c(c2)N(C)C(=O)C3(C)C)o1` [Example 71, 1,3,3-Trimethyl-6-(2-methyloxazol-5-yl)indolin-2-one], the inhibition at 30 mg/kg in assay [2] (setting [3]) amounted to 68.5%. Further, in assay [1], the SmartCube behavioral signature result is given as “similarity to atypical antipsychotics”, the “discrimination rate vs Clozapine” value is 0.79, the “discrimination rate vs Olanzapine” value amounted to 0.66 and the “discrimination rate vs Risperidone” value came out at 0.63.
In assay [2] (setting [3]), `CN(C)c1ncc(-c2ccc3c(c2)N(C)C(=O)C3(C)C)cn1` [Example 11, 6-(2-(Dimethylamino)pyrimidin-5-yl)-1,3,3-trimethylindolin-2-one] registered an inhibition at 30 mg/kg of 72.2%.
The molecule `Cc1ncc(-c2ccc3c(c2)N(CC2CCC2)C(=O)C3(C)C)cn1` [Example 48, 1-(Cyclobutylmethyl)-3,3-dimethyl-6-(2-methylpyrimidin-5-yl)indolin-2-one] displayed an inhibition at 30 mg/kg in assay [2] (setting [3]) of 68.6%.
Take `Cc1nnc(-c2ccc3c(c2)N(C)C(=O)C3(C)C)o1` [Example 93, 1,3,3-Trimethyl-6-(5-methyl-1,3,4-oxadiazol-2-yl)indolin-2-one]: the inhibition at 30 mg/kg in assay [2] (setting [3]) turned out to be 68.6%.
In turn, `CN1C(=O)C(C)(C)c2ccc(-c3ccncc3)c(F)c21` [Example 39, 7-Fluoro-1,3,3-trimethyl-6-pyridin-4-yl-1,3-dihydro-indol-2-one] showed an inhibition at 30 mg/kg in assay [2] (setting [3]) of 77.6%.
Same read-out and setting: as for `Cc1ncc(-c2cc3c(cn2)C(C)(C)C(=O)N3)cn1` [Example 92, 3,3-Dimethyl-6-(2-methylpyrimidin-5-yl)-1H-pyrrolo[3,2-c]pyridin-2-one], the figure is 80.9%.
`Cc1ncc(-c2ccc3c(c2)N(CCCF)C(=O)C3(C)C)cn1` [Example 131, 1-(3-Fluoropropyl)-3,3-dimethyl-6-(2-methylpyrimidin-5-yl)indolin-2-one] gave an inhibition at 30 mg/kg in assay [2] (setting [3]) of 95.3%.
Still for that read-out and setting: the same measure for `CN1C(=O)C(C)(C)c2ccc(-c3cncnc3)cc21` [Example 4, 1,3,3-Trimethyl-6-(pyrimidin-5-yl)indolin-2-one]: 74.6%.
The molecule `CN1C(=O)C(C)(C)c2cc(F)c(-c3ccncc3)cc21` [Example 38, 5-Fluoro-1,3,3-trimethyl-6-(pyridin-4-yl)indolin-2-one] came in with an inhibition at 30 mg/kg in assay [2] (setting [3]) of 57.3%.
`Cc1ncc(-c2ccc3c(c2)N(CCS(C)(=O)=O)C(=O)C3(C)C)cn1` [Example 57] gave an inhibition at 30 mg/kg in assay [2] (setting [3]) of 79.9%.
Same read-out and setting: the same measure for `Cc1ncnc(C)c1-c1ccc2c(c1)N(C)C(=O)C2(C)C` [Example 31, 6-(4,6-Dimethyl-pyrimidin-5-yl)-1,3,3-trimethyl-1,3-dihydro-indol-2-one]: 81.2%; for `Cc1c(-c2cccnc2)ccc2c1N(C)C(=O)C2(C)C` [Example 36, 1,3,3,7-Tetramethyl-6-(pyridin-3-yl)indolin-2-one]: 79.3%.
As to `Cc1nnc(-c2ccc3c(c2)NC(=O)C3(C)C)o1` [Example 106, 3,3-Dimethyl-6-(5-methyl-1,3,4-oxadiazol-2-yl)indolin-2-one], at 30 mg/kg the inhibition in assay [2] (setting [3]) was 75.7%.
`CN1C(=O)C(C)(C)c2cc(F)c(-c3cncnc3)c(F)c21` [Example 43, 5,7-Difluoro-1,3,3-trimethyl-6-pyrimidin-5-yl-1,3-dihydro-indol-2-one]: in assay [2] (setting [3]), the inhibition at 30 mg/kg is 60.5%.
On to `Cc1ncc(-c2ccc3c(c2)N(CCCS(=O)(=O)C2CC2)C(=O)C3(C)C)cn1` [Example 54, 1-(3-(Cyclopropylsulfonyl)propyl)-3,3-dimethyl-6-(2-methylpyrimidin-5-yl)indolin-2-one], for which, in assay [1], the SmartCube behavioral signature entry is “similarity to atypical antipsychotics”, the “discrimination rate vs Clozapine” value worked out at 0.69, the “discrimination rate vs Olanzapine” value is listed as 0.61 and the “discrimination rate vs Risperidone” value was determined as 0.63.
`CC1(C)C(=O)Nc2cc(-c3ccnnc3)ccc21` [Example 17, 3,3-Dimethyl-6-(pyridazin-4-yl)indolin-2-one] registered an inhibition at 30 mg/kg in assay [2] (setting [3]) of 66.7%.
For the molecule `CN1C(=O)C(C)(C)c2ccc(-c3ccc(C4CC4)nn3)cc21` [Example 79, 6-(6-Cyclopropylpyridazin-3-yl)-1,3,3-trimethyl-indolin-2-one], testing at 20 mg/kg in assay [2] (Mus musculus, dose ip 20 mg/kg, at the same time as s.c. 50 mg/kg L-687,414) gave an inhibition of 62.5%.
Take `CC1(C)C(=O)Nc2cc(-c3ccncc3)ccc21` [Example 7, 3,3-Dimethyl-6-(pyridin-4-yl)indolin-2-one]: in assay [2] (dose producing 50% inhibition of L-687,414-induced hyperlocomotion, p.o. 15 min before s.c. 50 mg/kg L-687,414), the ID50 po amounted to 29.2 mg/kg.
`Cc1cnccc1-c1ccc2c(c1)NC(=O)C2(C)C` [Example 20, 3,3-Dimethyl-6-(3-methylpyridin-4-yl)indolin-2-one] gave an inhibition at 30 mg/kg in assay [2] (setting [3]) of 47.5%.
Same read-out and setting: the same measure for `Cc1ncc(-c2ccc3c(c2)N(CCCO)C(=O)C3(C)C)cn1` [Example 56, 1-(3-Hydroxypropyl)-3,3-dimethyl-6-(2-methylpyrimidin-5-yl)indolin-2-one]: 93.9%.
